# Like-named read-outs stand apart in the source and are kept apart here.
# What was measured:
# [1] = system: Huh-7 cells; experiment: Cell proliferation assay (MTT), Huh-7; assay type: cell-based; details: Homo sapiens
# Protocol: The antibodies recognizing LC3, p62/SQSTM1, RalA, RalB, and GAPDH were purchased from Proteintech (Wuhan, China). HCC cell lines, including HepG2, Hep3B, Huh-7, and SMMC-7721, were obtained from the Chinese Center for Type Culture Collection (Wuhan, China) and cultured in DMEM (Dulbecco’s modified Eagle’s medium) with 10% FBS (fetal bovine serum) and streptomycin. Cytotoxicity assays were performed by using the MTT method as previously described.
# (§1) The in vitro RalA/B bioactivity assays were performed following methods outlined in previous reports. ([Yan et al., 2016]; [Zhang et al., 2018]; [Walsh et al., 2019]; [Bum-Erdene et al., 2020]). In brief, the lysates of the test compound or vehicle-treated cells were cleared using cold centrifugation, and supernatants were collected. An RalBP1 solution was added to 96-well plates and incubated for 1–2 h, and then the plates were washed thrice using ELISA buffer. Next, cellular lysates were added, and samples were incubated overnight at 4°C. Then, ice-cold mouse anti-FLAG antibody was added, and samples were incubated for one more hour. After subsequent washing with ELISA buffer thrice, the HRP-conjugated anti-mouse antibody was added, and samples were incubated for another hour. Then, the HRP substrate was added. Antigen–antibody reactions were quenched by the addition of sulfuric acid (2 mol/L). Remaining RalA/B was detected by the OD450 values which were collected by using a plate reader. Cell proliferation assays, colony formation assays, apoptosis assays, GST pulldown, and Western blotting were used following methods outlined in our previous reports. ([Zhou et al., 2015]; [Zhang et al., 2016]; [Yang et al., 2017]; [He et al., 2019]). Autophagy levels and protein immunoblotting were used following the methods mentioned in our previous reports ([Pan et al., 2018]; [Wang et al., 2018]; [Hao et al., 2019]; [Wang et al., 2019]; [Peng et al., 2020]). Detailed experimental procedures are described in supporting materials.
# [2] = molecular target: T1, RalA (Homo sapiens, UniProt P11233); experiment: ELISA-based RalA activity assay (RalBP1-coated plates, lysates of compound-treated cells); assay type: biochemical
# T1 construct: expressed in transfected cells; host or cells: HepG2 (from b6; the methods paragraph names no cell line)
# T1 sequence (P11233 1-203 limits assumed): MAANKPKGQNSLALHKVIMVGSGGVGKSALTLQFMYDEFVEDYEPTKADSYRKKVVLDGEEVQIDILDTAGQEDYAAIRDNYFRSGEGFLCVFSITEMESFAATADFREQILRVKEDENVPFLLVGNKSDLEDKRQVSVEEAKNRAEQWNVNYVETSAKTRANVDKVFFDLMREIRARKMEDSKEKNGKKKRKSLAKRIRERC
# Protocol: as §1
# [3] = system: HepG2 cells; experiment: Autophagy assays in HepG2 cells (TEM, Western blotting, GFP-LC3 puncta); assay type: cell-based
# Protocol: Several reports have characterized RalA/B potential regulatory roles in autophagy ([Zhang et al., 2019]; [Pang et al., 2020]; [Zhang et al., 2020]). Considering the dual effect of HCC autophagy, we assessed changes in HepG2 cell autophagy levels after the addition of 0.5 or 2.0 μM of 4p, before incubation. Based on HepG2 cells’ TEM images with or without 4p (Figure 5B), autophagy vacuoles per cell decreased in the 4p-treated group (p < 0.01). After 4p treatments, LC3-II and ATG5 protein levels declined and SQSTM1 increased. […] In GFP-LC3–transfected HepG2 cells, cytoplasm LC3 fluorescent puncta numbers also declined after 4p treatments. […] The in vivo antitumor capacities of 4p were determined on a HepG2 subcutaneous xenograft model. The 4p intraperitoneal injections were set to 15 mg/kg and 60 mg/kg, according to in vitro results. […] The potential 4p molecular mechanisms were further validated using immunofluorescence and IHC analyses of tissue sections stained by antibodies against TUNEL, Ki-67, RalA, LC3-II, and SQSTM1. […] Therefore, the in vivo results were consistent with in vitro experiments. […]
# The autophagy assay is relied on HepG2 cells transfected by GFP-LC3. In brief, the HepG2 cells after transfecting are processed by saline or compound 4p for 6 h, after that the cells are going to fix by paraformaldehyde and the phenomenon of autophagosome punctures can be observed through the accumulated of GFP-LC3 under laser confocal microscopy.
# 2. Western blotting analysis
# For western blotting, the extracts of total protein from each sample were treated in accordance with the method we described previously. In short, the total proteins were loaded into the SDS-PAGE gel and separated through the different of their molecular weight in electrophoresis, after that the separated proteins were shifted into a PVDF membrane (Millipore, Burlington, MA, USA) and incubated through corresponding membrane react pathways. The resulted membranes reacted with major antibodies and HRP (horseradish peroxidase)-conjugated secondary antibodies. The expression profiles of target proteins can be identified through an enhanced chemiluminescence (ECL) substrate. […]
smiles,measurement,setting,value
"COc1ccc(S(=O)(=O)NC2=C(C#N)C(c3ccc(C(F)(F)F)cc3)c3c(C)nn(-c4ccccc4)c3O2)cc1 (centres unmarked) [4p, N-(5-cyano-3-methyl-1-phenyl-4-(4-(trifluoromethyl)phenyl)-1,4-dihydropyrano[2,3-c]-pyrazol-6-yl)-4-methoxybenzenesulfonamide]",IC50,"[1]; Table 1, cell proliferation inhibition, read-out: IC50 (μM) Huh7",4.31 ± 0.39 µM
same,IC50,"[1]; Table 2, average of at least three independent replicates ± SD, read-out: Anti-proliferative activities (IC50, μM) Huh-7",4.31 ± 0.39 µM
same,remaining activity at 1 µM,"[2]; 1 μM compound, % control = activity remained",13%
same,IC50,"[2]; enzymatic inhibition, average of at least three independent replicates ± SD, read-out: Kinase activities (IC50, μM) RalA",0.22 ± 0.04 µM
same,cytoplasm LC3 fluorescent puncta numbers,"[3]; GFP-LC3–transfected HepG2 cells, 2.0 μM",declined
same,LC3-II and ATG5 protein levels (Western blotting),"[3]; HepG2, 0.5 or 2.0 μM",declined
same,SQSTM1 protein level (Western blotting),"[3]; HepG2, 0.5 or 2.0 μM",increased
same,autophagy vacuoles per cell (TEM),"[3]; HepG2, 4p-treated group, p < 0.01",decreased
